The record followed here is patent publication US10004701B2, “Methods and compositions for treating infection” (UNIVERSITY OF ROCHESTER, priority 2012, dated 2018).

Where a name gives a salt, the structure may show the parent alone. Read-outs that look alike come from different tables or passages of the source.

Common to all, as to experiment: AK assay 384-well format, Prestwick library screening
Experiment [1] concerns A. baumannii strain 98-37-09. In kind it is cell-based, Acinetobacter baumannii. Particulars: Acinetobacter baumannii, 983709, 3 h, 50 μM final drug concentration.
Experiment [2] relates to E. coli. Format: cell-based, Escherichia coli. Particulars: Escherichia coli, 3 h, 50 μM final drug concentration.
Experiment [3] has as its system K. pneumoniae. Format: cell-based, Klebsiella pneumoniae. As to conditions: Klebsiella pneumoniae, 3 h, 50 μM final drug concentration.
The test system of experiment [4] is P. aeruginosa. In kind it is cell-based, Pseudomonas aeruginosa. Particulars: Pseudomonas aeruginosa, 3 h, 50 μM final drug concentration.
Experiment [5] deals with E. faecium. In kind it is cell-based, Enterococcus faecium. Particulars: Enterococcus faecium, 3 h, 50 μM final drug concentration.
Experiment [6] has as its system S. aureus strain USA300-0114. Format: cell-based, Staphylococcus aureus. As to conditions: Staphylococcus aureus, USA300, 3 h, 50 μM final drug concentration.
The subject of experiment [7] is E. cloacae. In kind it is cell-based, Enterobacter cloacae. Particulars: Enterobacter cloacae, 3 h, 50 μM final drug concentration.
Where [8] appears, read: planktonic, cutoff for positive 3-fold increase, read-out: AK-based Prestwick Library Screening Results, A. baumannii (fold increase in extracellular AK activity).
[9] abbreviates: planktonic, cutoff for positive 3-fold increase, read-out: AK-based Prestwick Library Screening Results, E. coli (fold increase in extracellular AK activity).
The mark [10] stands for this setting: planktonic, cutoff for positive 3-fold increase, read-out: AK-based Prestwick Library Screening Results, K. pneumoniae (fold increase in extracellular AK activity).
[11] abbreviates: planktonic, cutoff for positive 3-fold increase, read-out: AK-based Prestwick Library Screening Results, P. aeruginosa (fold increase in extracellular AK activity).
[12] abbreviates: planktonic, cutoff for positive 3-fold increase, read-out: AK-based Prestwick Library Screening Results, E. faecium (fold increase in extracellular AK activity).
Where [13] appears, read: planktonic, cutoff for positive 3-fold increase, read-out: AK-based Prestwick Library Screening Results, S. aureus (fold increase in extracellular AK activity).
Where [14] appears, read: planktonic, cutoff for positive 3-fold increase, read-out: AK-based Prestwick Library Screening Results, E. cloacae (fold increase in extracellular AK activity).
[15] abbreviates: planktonic A. baumannii, 384-well, cutoff for positive-scoring molecules 3-fold increase, read-out: AK-based Prestwick Library Screening Results: A. baumannii (increase in extracellular AK activity).
Where [16] appears, read: planktonic E. coli, 384-well, cutoff for positive-scoring molecules 3-fold increase, read-out: AK-based Prestwick Library Screening Results: E. coli (increase in extracellular AK activity).
Setting [17] is: planktonic K. pneumoniae, 384-well, cutoff for positive-scoring molecules 3-fold increase, read-out: AK-based Prestwick Library Screening Results: K. pneumoniae (increase in extracellular AK activity).
The mark [18] stands for this setting: planktonic P. aeruginosa, 384-well, cutoff for positive-scoring molecules 3-fold increase, read-out: AK-based Prestwick Library Screening Results: P. aeruginosa (increase in extracellular AK activity).
The mark [19] stands for this setting: planktonic E. faecium, 384-well, cutoff for positive-scoring molecules 3-fold increase, read-out: AK-based Prestwick Library Screening Results: E. faecium (increase in extracellular AK activity).
Setting [20] is: planktonic S. aureus, 384-well, cutoff for positive-scoring molecules 3-fold increase, read-out: AK-based Prestwick Library Screening Results: S. aureus (increase in extracellular AK activity).
The mark [21] stands for this setting: planktonic E. cloacae, 384-well, cutoff for positive-scoring molecules 3-fold increase, read-out: AK-based Prestwick Library Screening Results: E. cloacae (increase in extracellular AK activity).

Regarding `Cc1cccc(CN2CCN(C(c3ccccc3)c3ccc(Cl)cc3)CC2)c1` (centres unmarked) [Meclozine dihydrochloride], the fold induction at 50 µM is 1.9 in experiment [1] (setting [8]); 1.2 in experiment [2] (setting [9]); 0.9 in experiment [3] (setting [10]); 1.2 in experiment [4] (setting [11]); 1.2 in experiment [5] (setting [12]); 2.1 in experiment [6] (setting [13]). Moreover, the fold induction at 50 µM in experiment [7] (setting [14]) came out at 1.4.
For the molecule `CC(=O)[C@H]1CC[C@H]2[C@@H]3C[C@H](C)C4=CC(=O)CC[C@]4(C)[C@H]3[C@@H](O)C[C@]12C` [Medrysone], the fold induction at 50 µM is 0.7 in experiment [1] (planktonic, cutoff for positive-scoring molecules 3-fold increase, read-out: AK-based Prestwick Library Screening Results, A. baumannii (fold increase in extracellular AK activity)); 0.7 in experiment [2] (planktonic, cutoff for positive-scoring molecules 3-fold increase, read-out: AK-based Prestwick Library Screening Results, E. coli (fold increase in extracellular AK activity)); 0.7 in experiment [3] (planktonic, cutoff for positive-scoring molecules 3-fold increase, read-out: AK-based Prestwick Library Screening Results, K. pneumoniae (fold increase in extracellular AK activity)); 0.8 in experiment [4] (planktonic, cutoff for positive-scoring molecules 3-fold increase, read-out: AK-based Prestwick Library Screening Results, P. aeruginosa (fold increase in extracellular AK activity)); 1 in experiment [5] (planktonic, cutoff for positive-scoring molecules 3-fold increase, read-out: AK-based Prestwick Library Screening Results, E. faecium (fold increase in extracellular AK activity)); 0.6 in experiment [6] (planktonic, cutoff for positive-scoring molecules 3-fold increase, read-out: AK-based Prestwick Library Screening Results, S. aureus (fold increase in extracellular AK activity)). Also, the fold induction at 50 µM in experiment [7] (planktonic, cutoff for positive-scoring molecules 3-fold increase, read-out: AK-based Prestwick Library Screening Results, E. cloacae (fold increase in extracellular AK activity)) worked out at 1.
`Cc1cccc(Nc2ccccc2C(=O)O)c1C` [Mefenamic acid]: the fold induction at 50 µM came to 1.2 in experiment [1] (setting [15]); 0.9 in experiment [2] (setting [16]); 0.8 in experiment [3] (setting [17]); 0.9 in experiment [4] (setting [18]); 0.9 in experiment [5] (setting [19]); 0.7 in experiment [6] (setting [20]). Also, the fold induction at 50 µM in experiment [7] (setting [21]) turned out to be 1.6.
Take `CCN(CC)CCNC(=O)COc1ccc(OC)cc1` [Mefexamide hydrochloride]: the fold induction at 50 µM in experiment [1] (setting [15]) was 1; in experiment [2] (setting [16]) it was 1.2; in experiment [3] (setting [17]), 0.9; in experiment [4] (setting [18]), 1.1; in experiment [5] (setting [19]), 1; in experiment [6] (setting [20]), 0.9. Further, the fold induction at 50 µM in experiment [7] (setting [21]) was found to be 1.3.
For the molecule `OC(c1cc(C(F)(F)F)nc2c(C(F)(F)F)cccc12)C1CCCCN1` (centres unmarked) [Mefloquine hydrochloride], the fold induction at 50 µM stood at 2.6 in experiment [1] (384-well format, cutoff for positive-scoring molecules 3-fold increase, read-out: AK-based Prestwick Library Screening Results, A. baumannii (increase in extracellular AK activity)); 1.3 in experiment [2] (384-well format, cutoff for positive-scoring molecules 3-fold increase, read-out: AK-based Prestwick Library Screening Results, E. coli (increase in extracellular AK activity)); 1.3 in experiment [3] (384-well format, cutoff for positive-scoring molecules 3-fold increase, read-out: AK-based Prestwick Library Screening Results, K. pneumoniae (increase in extracellular AK activity)); 1.1 in experiment [4] (384-well format, cutoff for positive-scoring molecules 3-fold increase, read-out: AK-based Prestwick Library Screening Results, P. aeruginosa (increase in extracellular AK activity)); 1 in experiment [5] (384-well format, cutoff for positive-scoring molecules 3-fold increase, read-out: AK-based Prestwick Library Screening Results, E. faecium (increase in extracellular AK activity)); 3.2 in experiment [6] (384-well format, cutoff for positive-scoring molecules 3-fold increase, read-out: AK-based Prestwick Library Screening Results, S. aureus (increase in extracellular AK activity)). The fold induction at 50 µM in experiment [7] (384-well format, cutoff for positive-scoring molecules 3-fold increase, read-out: AK-based Prestwick Library Screening Results, E. cloacae (increase in extracellular AK activity)) was 1.2.
As to `CC(=O)O[C@]1(C(C)=O)CC[C@H]2[C@@H]3C=C(C)C4=CC(=O)CC[C@]4(C)[C@H]3CC[C@@]21C` [Megestrol acetate], the fold induction at 50 µM in experiment [1] (cutoff for positive-scoring molecules 3-fold increase, read-out: AK-based Prestwick Library Screening Results, A. baumannii (fold increase in extracellular AK activity)) was 1.2; in experiment [2] (cutoff for positive-scoring molecules 3-fold increase, read-out: AK-based Prestwick Library Screening Results, E. coli (fold increase in extracellular AK activity)), 1.1; in experiment [3] (cutoff for positive-scoring molecules 3-fold increase, read-out: AK-based Prestwick Library Screening Results, K. pneumoniae (fold increase in extracellular AK activity)), 1; in experiment [4] (cutoff for positive-scoring molecules 3-fold increase, read-out: AK-based Prestwick Library Screening Results, P. aeruginosa (fold increase in extracellular AK activity)), 1.2; in experiment [5] (cutoff for positive-scoring molecules 3-fold increase, read-out: AK-based Prestwick Library Screening Results, E. faecium (fold increase in extracellular AK activity)) it was 1.2; in experiment [6] (cutoff for positive-scoring molecules 3-fold increase, read-out: AK-based Prestwick Library Screening Results, S. aureus (fold increase in extracellular AK activity)), 0.9. In addition, the fold induction at 50 µM in experiment [7] (cutoff for positive-scoring molecules 3-fold increase, read-out: AK-based Prestwick Library Screening Results, E. cloacae (fold increase in extracellular AK activity)) came to 1.6.
`CNC[C@H](O)[C@@H](O)[C@H](O)[C@H](O)CO` [Meglumine]: the fold induction at 50 µM in experiment [1] (planktonic, […], read-out: AK-based Prestwick Library Screening Results, A. baumannii (fold increase in extracellular AK activity)) is 0.5; in experiment [2] (planktonic, […], read-out: AK-based Prestwick Library Screening Results, E. coli (fold increase in extracellular AK activity)), 0.5; in experiment [3] (planktonic, […], read-out: AK-based Prestwick Library Screening Results, K. pneumoniae (fold increase in extracellular AK activity)) it was 0.7; in experiment [4] (planktonic, […], read-out: AK-based Prestwick Library Screening Results, P. aeruginosa (fold increase in extracellular AK activity)), 0.5; in experiment [5] (planktonic, […], read-out: AK-based Prestwick Library Screening Results, E. faecium (fold increase in extracellular AK activity)), 0.8; in experiment [6] (planktonic, […], read-out: AK-based Prestwick Library Screening Results, S. aureus (fold increase in extracellular AK activity)) it was 0.5. Besides, the fold induction at 50 µM in experiment [7] (planktonic, […], read-out: AK-based Prestwick Library Screening Results, E. cloacae (fold increase in extracellular AK activity)) came to 0.6.
In the case of `COc1ccc2[nH]cc(CCNC(C)=O)c2c1` [Melatonin], the fold induction at 50 µM in experiment [1] (setting [8]) is 1.2; in experiment [2] (setting [9]), 0.9; in experiment [3] (setting [10]), 0.8; in experiment [4] (setting [11]), 1.1; in experiment [5] (setting [12]) it was 1; in experiment [6] (setting [13]) it was 1.3. In addition, the fold induction at 50 µM in experiment [7] (setting [14]) amounted to 1.4.
